pIC50: −log10 of the molar value.
System: 883617-216-R-J1-PDC complex spheroid viability
Experiment: Anticancer human tumor 883617-216-R-J1-PDC patient-derived bladder carcinoma cell line growth inhibition [POLQ]
Settings: for pIC50: curve of first compound; for viability, T/C: stronger effect = lower value
Procedure, shortened: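 Patient-derived tumour cells were co-cultured with HUVEC and mesenchymal stem cells as multicellular spheroids at 37 °C. They were treated with POLQ inhibitors (novobiocin, ART-558, RP6685) alone or combined with other agents. Top concentrations were at or near clinical Cmax (otherwise 10 microM; SN-38 at 1 microM), decreasing in half-log steps.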

[1] = second compound 0.0316 µM, first compound 0.0316 µM
[2] = second compound 0.0316 µM, first compound 0.1 µM
[3] = second compound 0.0316 µM, first compound 0.316 µM
[4] = second compound 0.0316 µM, first compound 1 µM
[5] = second compound 0.0316 µM, first compound 3.16 µM
[6] = second compound 0.0316 µM, first compound 10 µM
[7] = second compound 0.1 µM, first compound 0.0316 µM
[8] = second compound 0.1 µM, first compound 0.1 µM
[9] = second compound 0.1 µM, first compound 0.316 µM
[10] = second compound 0.1 µM, first compound 1 µM
[11] = second compound 0.1 µM, first compound 3.16 µM
[12] = second compound 0.1 µM, first compound 10 µM
[13] = second compound 0.316 µM, first compound 0.0316 µM
[14] = second compound 0.316 µM, first compound 0.1 µM
[15] = second compound 0.316 µM, first compound 0.316 µM
[16] = second compound 0.316 µM, first compound 1 µM
[17] = second compound 0.316 µM, first compound 3.16 µM
[18] = second compound 0.316 µM, first compound 10 µM
[19] = second compound 1 µM, first compound 0.0316 µM
[20] = second compound 1 µM, first compound 0.1 µM
[21] = second compound 1 µM, first compound 0.316 µM
[22] = second compound 1 µM, first compound 1 µM
[23] = second compound 1 µM, first compound 3.16 µM
[24] = second compound 1 µM, first compound 10 µM
[25] = second compound 3.16 µM, first compound 0.0316 µM
[26] = second compound 3.16 µM, first compound 0.1 µM
[27] = second compound 3.16 µM, first compound 0.316 µM
[28] = second compound 3.16 µM, first compound 1 µM
[29] = second compound 3.16 µM, first compound 3.16 µM
[30] = second compound 3.16 µM, first compound 10 µM
[31] = second compound 10 µM, first compound 0.0316 µM
[32] = second compound 10 µM, first compound 0.1 µM
[33] = second compound 10 µM, first compound 0.316 µM
[34] = second compound 10 µM, first compound 1 µM
[35] = second compound 10 µM, first compound 3.16 µM
[36] = second compound 10 µM, first compound 10 µM
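Note: spheroids exposed to compounds for seven days before readout.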
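Throughout, for viability, T/C: 100% = DMSO vehicle control viability.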

With CCc1cc2c(N3CCc4c(cc(Cn5ccnc5)cc4-c4cn(C)nc4C(F)(F)F)C3=O)cc(C)nc2c(OC)n1 + COC1C(OC(N)=O)C(O)C(Oc2ccc3c(O)c(NC(=O)c4ccc(O)c(CC=C(C)C)c4)c(=O)oc3c2C)OC1(C)C the pIC50 (second compound 0.0316 µM) was < 5.00, the pIC50 (second compound 0.1 µM) was 5.06 and the pIC50 (second compound 0.316 µM) was 5.03. For the same compound, the pIC50 (second compound 1 µM) was < 5.00, the pIC50 (second compound 3.16 µM) was < 5.00 and the pIC50 (second compound 10 µM) was < 5.00. It also gave a viability, T/C [1] of 96.2%, a viability, T/C [2] of 105% and a viability, T/C [3] of 96.8%. The viability, T/C [4] was 80.6%, the viability, T/C [5] was 77.2% and the viability, T/C [6] was 58.9%. For the same compound, the viability, T/C [7] was 98.4%, the viability, T/C [8] was 106% and the viability, T/C [9] was 109%. The viability, T/C [10] was 94.9%, the viability, T/C [11] was 68% and the viability, T/C [12] was 47.6%. It also gave a viability, T/C [13] of 107%, a viability, T/C [14] of 109% and a viability, T/C [15] of 105%. The viability, T/C [16] was 86.2%, the viability, T/C [17] was 75% and the viability, T/C [18] was 48%. It also gave a viability, T/C [19] of 99%, a viability, T/C [20] of 101% and a viability, T/C [21] of 96.6%. For the same compound, the viability, T/C [22] was 106%, the viability, T/C [23] was 75.3% and the viability, T/C [24] was 61.3%. It also gave a viability, T/C [25] of 96.3%, a viability, T/C [26] of 103% and a viability, T/C [27] of 115%. For the same compound, the viability, T/C [28] was 89.7%, the viability, T/C [29] was 75.8% and the viability, T/C [30] was 58.4%. For the same compound, the viability, T/C [31] was 99.8%, the viability, T/C [32] was 99.6% and the viability, T/C [33] was 97.1%. It also gave a viability, T/C [34] of 97.4%, a viability, T/C [35] of 72.7% and a viability, T/C [36] of 59.4%.
With CCc1cc2c(N3CCc4c(cc(Cn5ccnc5)cc4-c4cn(C)nc4C(F)(F)F)C3=O)ccnc2c(OC)n1 + COC1C(OC(N)=O)C(O)C(Oc2ccc3c(O)c(NC(=O)c4ccc(O)c(CC=C(C)C)c4)c(=O)oc3c2C)OC1(C)C the pIC50 (second compound 0.0316 µM) was < 5.00, the pIC50 (second compound 0.1 µM) was < 5.00 and the pIC50 (second compound 0.316 µM) was < 5.00. For the same compound, the pIC50 (second compound 1 µM) was < 5.00, the pIC50 (second compound 3.16 µM) was < 5.00 and the pIC50 (second compound 10 µM) was < 5.00. It also gave a viability, T/C [1] of 103%, a viability, T/C [2] of 103% and a viability, T/C [3] of 97.7%. The viability, T/C [4] was 104%, the viability, T/C [5] was 78.8% and the viability, T/C [6] was 57.6%. It also gave a viability, T/C [7] of 97.8%, a viability, T/C [8] of 93.9% and a viability, T/C [9] of 101%. For the same compound, the viability, T/C [10] was 92.5%, the viability, T/C [11] was 72.7% and the viability, T/C [12] was 58.6%. For the same compound, the viability, T/C [13] was 106%, the viability, T/C [14] was 93.4% and the viability, T/C [15] was 115%. For the same compound, the viability, T/C [16] was 99.9%, the viability, T/C [17] was 78.2% and the viability, T/C [18] was 53.5%. The viability, T/C [19] was 102%, the viability, T/C [20] was 93.1% and the viability, T/C [21] was 115%. For the same compound, the viability, T/C [22] was 100%, the viability, T/C [23] was 82.4% and the viability, T/C [24] was 57.1%. For the same compound, the viability, T/C [25] was 94.6%, the viability, T/C [26] was 95.3% and the viability, T/C [27] was 106%. For the same compound, the viability, T/C [28] was 104%, the viability, T/C [29] was 79.2% and the viability, T/C [30] was 62.6%. It also gave a viability, T/C [31] of 103%, a viability, T/C [32] of 93.4% and a viability, T/C [33] of 110%. For the same compound, the viability, T/C [34] was 106%, the viability, T/C [35] was 75.3% and the viability, T/C [36] was 57.8%.
COc1cc2cc(C(=O)CCC(=O)O)sc2cc1OC + COC1C(OC(N)=O)C(O)C(Oc2ccc3c(O)c(NC(=O)c4ccc(O)c(CC=C(C)C)c4)c(=O)oc3c2C)OC1(C)C was tested, and the pIC50 (second compound 0.0316 µM) was < 5.00, the pIC50 (second compound 0.1 µM) was < 5.00 and the pIC50 (second compound 0.316 µM) was < 5.00. For the same compound, the pIC50 (second compound 1 µM) was < 5.00, the pIC50 (second compound 3.16 µM) was < 5.00 and the pIC50 (second compound 10 µM) was < 5.00. For the same compound, the viability, T/C [1] was 91.3%, the viability, T/C [2] was 89.1% and the viability, T/C [3] was 105%. It also gave a viability, T/C [4] of 83.3%, a viability, T/C [5] of 101% and a viability, T/C [6] of 90.9%. It also gave a viability, T/C [7] of 113%, a viability, T/C [8] of 102% and a viability, T/C [9] of 88.7%. For the same compound, the viability, T/C [10] was 93.8%, the viability, T/C [11] was 99.6% and the viability, T/C [12] was 102%. It also gave a viability, T/C [13] of 89.4%, a viability, T/C [14] of 83.6% and a viability, T/C [15] of 92.5%. It also gave a viability, T/C [16] of 93%, a viability, T/C [17] of 101% and a viability, T/C [18] of 89.2%. For the same compound, the viability, T/C [19] was 98.9%, the viability, T/C [20] was 96.6% and the viability, T/C [21] was 86.4%. It also gave a viability, T/C [22] of 100%, a viability, T/C [23] of 90.4% and a viability, T/C [24] of 98.2%. For the same compound, the viability, T/C [25] was 94%, the viability, T/C [26] was 94.1% and the viability, T/C [27] was 90.7%. It also gave a viability, T/C [28] of 101%, a viability, T/C [29] of 98.6% and a viability, T/C [30] of 92.4%. The viability, T/C [31] was 101%, the viability, T/C [32] was 98.5% and the viability, T/C [33] was 88.5%. For the same compound, the viability, T/C [34] was 93.9%, the viability, T/C [35] was 84.6% and the viability, T/C [36] was 101%.
For O=C(Nc1ccc(O)c(NS(=O)(=O)c2ccc(F)cc2)c1)c1ccc(-c2ccccc2)cc1 + COC1C(OC(N)=O)C(O)C(Oc2ccc3c(O)c(NC(=O)c4ccc(O)c(CC=C(C)C)c4)c(=O)oc3c2C)OC1(C)C, the pIC50 (second compound 0.0316 µM) was < 5.00, the pIC50 (second compound 0.1 µM) was < 5.00 and the pIC50 (second compound 0.316 µM) was < 5.00. The pIC50 (second compound 1 µM) was < 5.00, the pIC50 (second compound 3.16 µM) was < 5.00 and the pIC50 (second compound 10 µM) was < 5.00. The viability, T/C [1] was 95.1%, the viability, T/C [2] was 90.8% and the viability, T/C [3] was 83.6%. It also gave a viability, T/C [4] of 84.6%, a viability, T/C [5] of 95.9% and a viability, T/C [6] of 64.9%. For the same compound, the viability, T/C [7] was 81.6%, the viability, T/C [8] was 100% and the viability, T/C [9] was 81%. It also gave a viability, T/C [10] of 89.6%, a viability, T/C [11] of 81.3% and a viability, T/C [12] of 62.4%. It also gave a viability, T/C [13] of 88.1%, a viability, T/C [14] of 104% and a viability, T/C [15] of 83.8%. It also gave a viability, T/C [16] of 90.1%, a viability, T/C [17] of 89.5% and a viability, T/C [18] of 53.2%. It also gave a viability, T/C [19] of 86.4%, a viability, T/C [20] of 86.5% and a viability, T/C [21] of 93.3%. It also gave a viability, T/C [22] of 90.4%, a viability, T/C [23] of 81.7% and a viability, T/C [24] of 62.9%. For the same compound, the viability, T/C [25] was 88.9%, the viability, T/C [26] was 96.4% and the viability, T/C [27] was 97.3%. It also gave a viability, T/C [28] of 73.5%, a viability, T/C [29] of 77% and a viability, T/C [30] of 65.7%. For the same compound, the viability, T/C [31] was 103%, the viability, T/C [32] was 87.5% and the viability, T/C [33] was 98.3%. For the same compound, the viability, T/C [34] was 83.2%, the viability, T/C [35] was 89.7% and the viability, T/C [36] was 70.4%.

From PubChem BioAssay AID1963833 (Molecular Pharmacology Branch, DTP, NCI, 2024)
